According to patent US20220363689A1, “INHIBITOR OF BTK AND MUTANTS THEREOF” (Newave Pharmaceutical Inc., priority 2019, published 2022):
Like-named read-outs stand apart in the source and are kept apart here.

Assays:
BMX = molecular target: T1, BMX (Homo sapiens, UniProt P51813); experiment: Caliper-based kinase assay, off-target BMX; type: biochemical; settings: Cys-481 homologous kinase panel
T1 sequence (P51813 1-675): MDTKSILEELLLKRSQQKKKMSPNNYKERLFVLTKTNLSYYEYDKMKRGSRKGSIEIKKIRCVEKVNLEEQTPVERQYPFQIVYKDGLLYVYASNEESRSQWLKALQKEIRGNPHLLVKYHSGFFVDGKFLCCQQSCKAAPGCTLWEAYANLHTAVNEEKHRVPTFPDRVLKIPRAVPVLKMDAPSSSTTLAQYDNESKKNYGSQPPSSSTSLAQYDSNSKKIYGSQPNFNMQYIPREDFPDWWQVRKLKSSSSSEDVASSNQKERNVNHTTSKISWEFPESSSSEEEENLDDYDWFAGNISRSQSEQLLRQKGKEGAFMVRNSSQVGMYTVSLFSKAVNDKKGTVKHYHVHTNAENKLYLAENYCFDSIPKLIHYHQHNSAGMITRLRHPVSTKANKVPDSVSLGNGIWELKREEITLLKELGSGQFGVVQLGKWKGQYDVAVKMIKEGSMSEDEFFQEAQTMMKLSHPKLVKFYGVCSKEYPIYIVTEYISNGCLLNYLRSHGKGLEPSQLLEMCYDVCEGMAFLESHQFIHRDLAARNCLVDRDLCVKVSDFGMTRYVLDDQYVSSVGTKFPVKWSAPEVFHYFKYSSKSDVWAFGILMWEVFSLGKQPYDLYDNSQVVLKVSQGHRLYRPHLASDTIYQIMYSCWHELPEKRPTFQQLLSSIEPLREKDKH
Text: (§1) A Caliper-based kinase assay (Caliper Life Sciences, Hopkinton, Mass.) was used to measure inhibition of kinase activity of compounds of the present disclosure. […]

BLK = BLK (Homo sapiens, UniProt P51451); experiment: Caliper-based kinase assay, off-target BLK; type: biochemical; settings: Cys-481 homologous kinase panel
Text: as §1

[1] = system: liver cancer cell line HepG2; experiment: HepG2 in vitro liver toxicity assay (ATPlite); type: cell-based; settings: Homo sapiens, HepG2, about 72 hours incubation
Method: (§2) Cell antiproliferation is assayed by PerkinElmer ATPlite™ Luminescence Assay System. Briefly, the liver cancer cell line HepG2 are plated at a density of about 1×10^4 cells per well in Costar 96-well plates, and are incubated with different concentrations of compounds for about 72 hours in medium supplemented with 5% FBS. One lyophilized substrate solution vial is then reconstituted by adding 5 mL of substrate buffer solution, and is agitated gently until the solution is homogeneous. About 50 μL of mammalian cell lysis solution is added to 100 μL of cell suspension per well of a microplate, and the plate is shaken for about five minutes in an orbital shaker at −700 rpm. This procedure is used to lyse the cells and to stabilize the ATP. Next, 50 μL substrate solution is added to the wells and microplate is shaken for five minutes in an orbital shaker at −700 rpm. Finally, the luminescence is measured by a PerkinElmer TopCount® Microplate Scintillation Counter. Such assays, carried out with a range of doses of test compounds, allow the determination of the cellular anti-antiproliferative IC50 of the compounds of the present invention.

EGFR = EGFR (Homo sapiens, UniProt P00533); experiment: Caliper-based kinase assay, off-target EGFR; type: biochemical; settings: Cys-481 homologous kinase panel
Text: as §1

HER2 = HER2 (Homo sapiens, UniProt P04626); experiment: Caliper-based kinase assay, off-target HER2; type: biochemical; settings: Cys-481 homologous kinase panel
Text: as §1

HER4 = HER4 (Homo sapiens, UniProt Q15303); experiment: Caliper-based kinase assay, off-target HER4; type: biochemical; settings: Cys-481 homologous kinase panel
Text: as §1

TXK = molecular target: T2, TXK (Homo sapiens, UniProt P42681); experiment: Caliper-based kinase assay, off-target TXK; type: biochemical; settings: Cys-481 homologous kinase panel
T2 sequence (P42681 1-527): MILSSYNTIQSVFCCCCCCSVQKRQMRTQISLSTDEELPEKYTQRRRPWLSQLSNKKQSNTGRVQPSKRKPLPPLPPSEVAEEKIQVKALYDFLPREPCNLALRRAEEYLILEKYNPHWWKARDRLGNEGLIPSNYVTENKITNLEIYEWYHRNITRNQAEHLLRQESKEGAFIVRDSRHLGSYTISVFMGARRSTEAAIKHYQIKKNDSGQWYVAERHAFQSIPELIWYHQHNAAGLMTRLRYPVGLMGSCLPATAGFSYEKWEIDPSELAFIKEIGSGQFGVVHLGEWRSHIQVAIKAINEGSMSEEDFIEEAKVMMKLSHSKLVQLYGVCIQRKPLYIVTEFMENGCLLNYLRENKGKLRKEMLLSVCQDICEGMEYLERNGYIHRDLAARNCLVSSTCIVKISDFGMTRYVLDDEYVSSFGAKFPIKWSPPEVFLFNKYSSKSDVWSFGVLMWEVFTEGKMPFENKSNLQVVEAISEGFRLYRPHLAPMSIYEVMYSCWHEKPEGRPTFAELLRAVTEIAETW
Text: as §1

human primary hepatocyte = experiment: Human primary hepatocyte cytotoxicity (ATPlite); type: cell-based; settings: about 72 hours incubation
Method: as §2, with “viability assay” for “antiproliferation”, “human primary hepatocyte” for “liver cancer cell line HepG2”

Chain of HER2 (P04626 23-1255): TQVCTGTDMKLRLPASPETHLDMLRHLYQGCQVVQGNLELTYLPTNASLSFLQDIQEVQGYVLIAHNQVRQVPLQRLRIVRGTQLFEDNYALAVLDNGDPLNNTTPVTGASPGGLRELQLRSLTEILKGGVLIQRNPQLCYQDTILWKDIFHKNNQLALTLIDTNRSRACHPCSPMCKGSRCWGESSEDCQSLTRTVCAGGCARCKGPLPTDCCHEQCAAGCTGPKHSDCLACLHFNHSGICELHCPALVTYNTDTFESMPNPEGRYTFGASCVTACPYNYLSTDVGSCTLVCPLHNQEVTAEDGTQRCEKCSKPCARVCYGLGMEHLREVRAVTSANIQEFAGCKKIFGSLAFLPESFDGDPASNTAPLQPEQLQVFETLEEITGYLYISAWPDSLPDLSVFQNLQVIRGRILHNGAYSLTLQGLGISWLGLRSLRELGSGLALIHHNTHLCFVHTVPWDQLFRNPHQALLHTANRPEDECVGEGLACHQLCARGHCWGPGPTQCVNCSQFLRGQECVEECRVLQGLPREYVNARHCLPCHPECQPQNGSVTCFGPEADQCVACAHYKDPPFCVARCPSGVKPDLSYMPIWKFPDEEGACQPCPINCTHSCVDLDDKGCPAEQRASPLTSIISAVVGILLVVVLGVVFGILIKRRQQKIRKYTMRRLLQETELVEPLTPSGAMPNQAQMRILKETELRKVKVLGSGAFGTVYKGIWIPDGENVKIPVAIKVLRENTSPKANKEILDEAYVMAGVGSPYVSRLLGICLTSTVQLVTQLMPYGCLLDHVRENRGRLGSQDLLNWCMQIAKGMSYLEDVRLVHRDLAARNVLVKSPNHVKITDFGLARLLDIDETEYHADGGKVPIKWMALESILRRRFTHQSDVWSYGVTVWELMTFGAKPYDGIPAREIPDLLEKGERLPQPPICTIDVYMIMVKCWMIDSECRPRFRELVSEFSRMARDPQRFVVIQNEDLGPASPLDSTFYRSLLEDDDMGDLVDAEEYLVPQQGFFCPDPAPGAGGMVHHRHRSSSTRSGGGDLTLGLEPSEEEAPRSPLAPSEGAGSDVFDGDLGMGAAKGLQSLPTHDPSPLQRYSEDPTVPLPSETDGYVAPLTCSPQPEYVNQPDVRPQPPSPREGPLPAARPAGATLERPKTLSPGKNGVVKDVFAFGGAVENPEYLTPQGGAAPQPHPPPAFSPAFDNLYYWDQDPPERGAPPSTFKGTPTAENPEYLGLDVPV
Chain of HER4 (Q15303 26-1308): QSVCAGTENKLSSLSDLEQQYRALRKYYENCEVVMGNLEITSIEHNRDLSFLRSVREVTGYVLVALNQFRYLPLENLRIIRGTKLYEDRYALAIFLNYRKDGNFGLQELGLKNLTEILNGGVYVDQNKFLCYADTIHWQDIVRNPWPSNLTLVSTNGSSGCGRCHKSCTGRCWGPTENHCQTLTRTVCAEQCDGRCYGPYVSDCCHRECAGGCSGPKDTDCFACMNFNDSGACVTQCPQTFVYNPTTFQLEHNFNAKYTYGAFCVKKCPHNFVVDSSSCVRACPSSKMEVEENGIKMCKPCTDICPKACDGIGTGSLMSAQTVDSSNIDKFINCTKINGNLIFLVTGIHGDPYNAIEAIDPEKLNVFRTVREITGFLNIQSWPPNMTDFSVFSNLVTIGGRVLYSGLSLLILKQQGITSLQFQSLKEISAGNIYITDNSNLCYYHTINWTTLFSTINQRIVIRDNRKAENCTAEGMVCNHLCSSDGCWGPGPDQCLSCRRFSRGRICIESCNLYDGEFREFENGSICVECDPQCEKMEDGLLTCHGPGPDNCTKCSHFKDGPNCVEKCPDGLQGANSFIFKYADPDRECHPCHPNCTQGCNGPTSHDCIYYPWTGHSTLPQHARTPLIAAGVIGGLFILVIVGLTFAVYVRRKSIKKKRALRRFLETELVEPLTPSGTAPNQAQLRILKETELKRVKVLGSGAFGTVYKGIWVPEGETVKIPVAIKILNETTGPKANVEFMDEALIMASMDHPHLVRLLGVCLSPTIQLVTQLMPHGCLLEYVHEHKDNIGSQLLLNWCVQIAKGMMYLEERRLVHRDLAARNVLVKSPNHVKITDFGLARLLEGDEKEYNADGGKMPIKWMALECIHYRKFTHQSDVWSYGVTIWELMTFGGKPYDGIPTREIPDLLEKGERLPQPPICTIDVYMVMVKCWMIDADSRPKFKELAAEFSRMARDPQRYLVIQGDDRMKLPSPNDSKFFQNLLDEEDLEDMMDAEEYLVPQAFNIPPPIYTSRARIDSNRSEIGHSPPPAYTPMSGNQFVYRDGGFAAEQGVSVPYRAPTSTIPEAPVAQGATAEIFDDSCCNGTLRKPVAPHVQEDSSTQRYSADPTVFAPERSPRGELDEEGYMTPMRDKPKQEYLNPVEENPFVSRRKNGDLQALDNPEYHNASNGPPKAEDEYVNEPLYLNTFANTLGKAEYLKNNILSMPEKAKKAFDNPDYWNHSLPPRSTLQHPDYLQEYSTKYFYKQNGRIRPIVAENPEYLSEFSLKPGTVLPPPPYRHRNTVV
Chain of EGFR (P00533 25-1210): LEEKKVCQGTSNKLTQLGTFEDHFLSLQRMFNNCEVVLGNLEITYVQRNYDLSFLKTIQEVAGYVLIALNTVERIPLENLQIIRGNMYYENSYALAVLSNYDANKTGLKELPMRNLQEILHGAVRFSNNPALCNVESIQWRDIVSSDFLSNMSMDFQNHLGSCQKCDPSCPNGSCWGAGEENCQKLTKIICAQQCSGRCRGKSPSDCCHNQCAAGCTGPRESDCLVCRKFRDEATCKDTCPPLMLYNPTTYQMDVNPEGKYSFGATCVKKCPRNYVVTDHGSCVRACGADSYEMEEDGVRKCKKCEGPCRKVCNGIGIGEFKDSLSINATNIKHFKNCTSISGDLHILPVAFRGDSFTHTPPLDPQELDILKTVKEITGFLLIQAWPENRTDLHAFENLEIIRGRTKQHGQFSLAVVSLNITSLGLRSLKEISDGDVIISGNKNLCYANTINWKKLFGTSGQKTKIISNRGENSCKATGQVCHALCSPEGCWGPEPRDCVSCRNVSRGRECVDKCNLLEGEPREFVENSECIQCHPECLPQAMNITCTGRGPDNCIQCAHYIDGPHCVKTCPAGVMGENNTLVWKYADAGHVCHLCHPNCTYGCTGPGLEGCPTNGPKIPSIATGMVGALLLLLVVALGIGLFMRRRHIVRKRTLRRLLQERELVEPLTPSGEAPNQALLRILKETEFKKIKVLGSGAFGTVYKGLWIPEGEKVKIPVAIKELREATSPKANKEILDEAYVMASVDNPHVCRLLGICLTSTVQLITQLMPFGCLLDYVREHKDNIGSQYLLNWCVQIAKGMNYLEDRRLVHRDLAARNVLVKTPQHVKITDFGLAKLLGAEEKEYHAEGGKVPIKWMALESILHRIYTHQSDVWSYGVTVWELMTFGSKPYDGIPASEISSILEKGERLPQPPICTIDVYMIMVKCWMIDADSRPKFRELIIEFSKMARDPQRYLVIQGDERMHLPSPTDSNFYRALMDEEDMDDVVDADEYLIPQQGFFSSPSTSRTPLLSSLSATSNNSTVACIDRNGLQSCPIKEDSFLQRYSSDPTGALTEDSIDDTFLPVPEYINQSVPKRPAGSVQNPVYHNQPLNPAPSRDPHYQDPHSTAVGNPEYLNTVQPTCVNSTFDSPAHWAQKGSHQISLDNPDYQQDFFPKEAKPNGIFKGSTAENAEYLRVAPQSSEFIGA
Chain of BLK (P51451 whole entry): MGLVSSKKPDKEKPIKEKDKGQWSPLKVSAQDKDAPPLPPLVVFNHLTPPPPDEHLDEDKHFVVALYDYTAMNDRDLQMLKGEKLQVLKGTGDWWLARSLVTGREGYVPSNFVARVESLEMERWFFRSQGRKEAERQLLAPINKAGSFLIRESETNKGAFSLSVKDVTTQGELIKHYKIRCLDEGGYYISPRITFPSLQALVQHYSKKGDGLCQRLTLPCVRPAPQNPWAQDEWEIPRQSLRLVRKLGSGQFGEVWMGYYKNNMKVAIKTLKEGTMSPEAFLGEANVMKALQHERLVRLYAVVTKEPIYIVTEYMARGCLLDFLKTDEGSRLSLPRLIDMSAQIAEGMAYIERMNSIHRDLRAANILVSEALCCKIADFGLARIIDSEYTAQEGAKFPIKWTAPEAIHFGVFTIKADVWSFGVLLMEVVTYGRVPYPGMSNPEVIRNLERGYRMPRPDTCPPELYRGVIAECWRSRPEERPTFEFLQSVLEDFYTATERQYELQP

Compound | IC50 (BMX) [nM] | IC50 (BLK) [nM] | IC50 ([1]; read-out: HepG2 IC50) [nM] | IC50 (EGFR) [nM] | IC50 (HER2) [nM] | IC50 (HER4) [nM] | IC50 (TXK) [nM] | IC50 (human primary hepatocyte) [nM] | IC50 ([1]; another experiment, read-out: HepG2 IC50 (another experiment)) [nM]
C=CC(=O)Nc1cc(Nc2nc(-c3ccnc(N4CCn5c(cc6c5CC(C)(C)C6)C4=O)c3CO)cn(C)c2=O)ccc1N1CCN(C2CCOCC2)C[C@H]1C(F)(F)F [Example 48-S, N-(5-[[6-(2-[4,4-dimethyl-9-oxo-1,10-diazatricyclo[6.4.0.0^[2,6]]dodeca-2(6),7-dien-10-yl]-3-(hydroxymethyl)pyridin-4-yl)-4-methyl-3-oxopyrazin-2-yl]amino]-2-[(2S)-4-(oxan-4-yl)-2-(trifluoromethyl)piperazin-1-yl]phenyl)prop-2-enamide] | 155 | > 1000 | 64500 | > 1000 | > 1000 | > 1000 | > 1000 | 40900 | 
C=CC(=O)Nc1cc(Nc2nc(-c3ccnc(N4CCc5c(sc6c5CCCC6)C4=O)c3CO)cn(C)c2=O)ccc1N1CCN(C2CCOCC2)C[C@H]1C(F)(F)F [Example 55-S, N-[5-([6-[3-(hydroxymethyl)-2-[6-oxo-8-thia-5-azatricyclo[7.4.0.0^[2,7]]trideca-1(9), 2(7)-dien-5-yl]pyridin-4-yl]-4-methyl-3-oxopyrazin-2-yl]amino)-2-[(2S)-4-(oxan-4-yl)-2-(trifluoromethyl)piperazin-1-yl]phenyl]prop-2-enamide] | 183 | > 1000 | 197000 | > 1000 | > 1000 | > 1000 | > 1000 | > 100000 | > 200000
CC(C)(/C=C(\C#N)C(=O)N1CCC[C@@H](n2nc(-c3ccc(Oc4ccccc4)cc3F)c3c(N)ncnc32)C1)N1CCN(C2COC2)CC1 [PRN-1008, reference compound] | 0.36 | 3.1 | 39600 | 268 | > 1000 | 3.1 | 0.48 | 23500 | 
